{"source": "paper PMC11012124", "about": "“Synthesis of Novel Triazine-Based Chalcones and 8,9-dihydro-7H-pyrimido[4,5-b][1,4]diazepines as Potential Leads in the Search of Anticancer, Antibacterial and Antifungal Agents” (International Journal of Molecular Sciences, 2024)", "key": {"[1]": {"system": "60 cancer cell lines", "assay": "NCI-60 one-dose screen (10 μM)", "format": "cell-based", "conditions": "Homo sapiens; one dose of 10 μM, mean over 60 cancer cell lines; read-out: Mean Growth Percent (MGP)", "text": "Additionally, the mean of the growth percentages (MGP) of each compound against all the 60 cancer cell lines is also reported, which is used as one of the selection criteria to continue with tests at five concentration doses."}, "[2]": {"system": "MOLT-4", "assay": "cells", "conditions": "Homo sapiens, MOLT-4, 48 h"}, "[3]": {"system": "RPMI-8226", "assay": "cells", "conditions": "Homo sapiens, RPMI-8226, 48 h"}, "[4]": {"system": "A549/ATCC", "assay": "cells", "conditions": "Homo sapiens, A549, 48 h"}, "[5]": {"system": "EKVX", "assay": "cells", "conditions": "Homo sapiens, 48 h"}, "[6]": {"system": "HOP-62", "assay": "cells", "conditions": "Homo sapiens, HOP-62, 48 h"}, "[7]": {"system": "HOP-92", "assay": "cells", "conditions": "Homo sapiens, HOP-92, 48 h"}, "[8]": {"system": "NCI-H226", "assay": "cells", "conditions": "Homo sapiens, NCI-H226, 48 h"}, "[9]": {"system": "NCI-H322M", "assay": "cells", "conditions": "Homo sapiens, 48 h"}, "[10]": {"system": "COLO 205", "assay": "cells", "conditions": "Homo sapiens, COLO 205, 48 h"}, "[11]": {"system": "HCC-2998", "assay": "cells", "conditions": "Homo sapiens, HCC 2998, 48 h"}, "[12]": {"system": "HCT-116", "assay": "cells", "conditions": "Homo sapiens, HCT-116, 48 h"}, "[13]": {"system": "HCT-15", "assay": "cells", "conditions": "Homo sapiens, HCT-15, 48 h"}, "[14]": {"system": "HT29", "assay": "cells", "conditions": "Homo sapiens, HT-29, 48 h"}, "[15]": {"system": "SF-268", "assay": "cells", "conditions": "Homo sapiens, SF-268, 48 h"}, "[16]": {"system": "SF-295", "assay": "cells", "conditions": "Homo sapiens, SF-295, 48 h"}, "[17]": {"system": "SF-539", "assay": "cells", "conditions": "Homo sapiens, SF-539, 48 h"}, "[18]": {"system": "SNB-19", "assay": "cells", "conditions": "Homo sapiens, SNB-19, 48 h"}, "[19]": {"system": "SNB-75", "assay": "cells", "conditions": "Homo sapiens, SNB-75, 48 h"}, "[20]": {"system": "U251", "assay": "cells", "conditions": "Homo sapiens, U-251, 48 h"}, "[21]": {"system": "LOX IMVI", "assay": "cells", "conditions": "Homo sapiens, 48 h"}, "[22]": {"system": "M14", "assay": "cells", "conditions": "Homo sapiens, M14, 48 h"}, "[23]": {"system": "SK-MEL-5", "assay": "cells", "conditions": "Homo sapiens, SK-MEL-5, 48 h"}, "[24]": {"system": "UACC-257", "assay": "cells", "conditions": "Homo sapiens, UACC-257, 48 h"}, "[25]": {"system": "UACC-62", "assay": "cells", "conditions": "Homo sapiens, UACC-62, 48 h"}, "[26]": {"system": "786-0", "assay": "cells", "conditions": "Homo sapiens, 786-0, 48 h"}, "[27]": {"system": "A498", "assay": "cells", "conditions": "Homo sapiens, A498, 48 h"}, "[28]": {"system": "ACHN", "assay": "cells", "conditions": "Homo sapiens, 48 h"}, "[29]": {"system": "RXF 393", "assay": "cells", "conditions": "Homo sapiens, RXF 393, 48 h"}, "[30]": {"system": "UO-31", "assay": "cells", "conditions": "Homo sapiens, UO-31, 48 h"}, "[31]": {"system": "PC-3", "assay": "cells", "conditions": "Homo sapiens, PC-3, 48 h"}, "[32]": {"system": "MDA-MB-231/ATCC", "assay": "cells", "conditions": "Homo sapiens, MDA-MB-231, 48 h"}, "[33]": {"system": "HS 578T", "assay": "cells", "conditions": "Homo sapiens, 48 h"}, "[34]": {"system": "BT-549", "assay": "cells", "conditions": "Homo sapiens, BT-549, 48 h"}, "[35]": {"system": "MDA-MB-468", "assay": "cells", "conditions": "Homo sapiens, MDA-MB-468, 48 h"}}}
{"smiles": "Cc1ccc(C2CC(c3ccc(Nc4nc(NCCO)nc(Nc5ccc(Cl)cc5)n4)cc3)=Nc3c(N)nc(N)nc3N2)cc1", "note": "(centres unmarked) [33b]", "values": [{"measurement": "activity at 10 µM", "setting": "[1]", "value": -21.8, "unit": "%"}, {"measurement": "GI50", "setting": "[2]", "value": 1.38, "unit": "µM"}, {"measurement": "CC50", "setting": "[2]; read-out: LC50", "value": "> 100", "unit": "µM"}, {"measurement": "GI50", "setting": "[3]", "value": 1.83, "unit": "µM"}, {"measurement": "CC50", "setting": "[3]; read-out: LC50", "value": "> 100", "unit": "µM"}, {"measurement": "GI50", "setting": "[4]", "value": 1.74, "unit": "µM"}, {"measurement": "CC50", "setting": "[4]; read-out: LC50", "value": 6.8, "unit": "µM"}, {"measurement": "GI50", "setting": "[5]", "value": 1.55, "unit": "µM"}, {"measurement": "CC50", "setting": "[5]; read-out: LC50", "value": 5.71, "unit": "µM"}, {"measurement": "GI50", "setting": "[6]", "value": 1.68, "unit": "µM"}, {"measurement": "CC50", "setting": "[6]; read-out: LC50", "value": 6.08, "unit": "µM"}, {"measurement": "GI50", "setting": "[7]", "value": 1.3, "unit": "µM"}, {"measurement": "CC50", "setting": "[7]; read-out: LC50", "value": 6.3, "unit": "µM"}, {"measurement": "GI50", "setting": "[8]", "value": 16.7, "unit": "µM"}, {"measurement": "CC50", "setting": "[8]; read-out: LC50", "value": 88.2, "unit": "µM"}, {"measurement": "GI50", "setting": "[9]", "value": 1.59, "unit": "µM"}, {"measurement": "CC50", "setting": "[9]; read-out: LC50", "value": 5.42, "unit": "µM"}, {"measurement": "GI50", "setting": "[10]", "value": 1.67, "unit": "µM"}, {"measurement": "CC50", "setting": "[10]; read-out: LC50", "value": 6.09, "unit": "µM"}, {"measurement": "GI50", "setting": "[11]", "value": 1.55, "unit": "µM"}, {"measurement": "CC50", "setting": "[11]; read-out: LC50", "value": 5.56, "unit": "µM"}, {"measurement": "GI50", "setting": "[12]", "value": 1.62, "unit": "µM"}, {"measurement": "CC50", "setting": "[12]; read-out: LC50", "value": 5.45, "unit": "µM"}, {"measurement": "GI50", "setting": "[13]", "value": 1.48, "unit": "µM"}, {"measurement": "CC50", "setting": "[13]; read-out: LC50", "value": 5.87, "unit": "µM"}, {"measurement": "GI50", "setting": "[14]", "value": 1.78, "unit": "µM"}, {"measurement": "CC50", "setting": "[14]; read-out: LC50", "value": 7.14, "unit": "µM"}, {"measurement": "GI50", "setting": "[15]", "value": 1.81, "unit": "µM"}, {"measurement": "CC50", "setting": "[15]; read-out: LC50", "value": 7.35, "unit": "µM"}, {"measurement": "GI50", "setting": "[16]", "value": 1.63, "unit": "µM"}, {"measurement": "CC50", "setting": "[16]; read-out: LC50", "value": 5.63, "unit": "µM"}, {"measurement": "GI50", "setting": "[17]", "value": 1.57, "unit": "µM"}, {"measurement": "CC50", "setting": "[17]; read-out: LC50, SF-539, 48 h", "value": 5.63, "unit": "µM"}, {"measurement": "GI50", "setting": "[18]", "value": 1.57, "unit": "µM"}, {"measurement": "CC50", "setting": "[18]; read-out: LC50", "value": 5.75, "unit": "µM"}, {"measurement": "GI50", "setting": "[19]", "value": 1.62, "unit": "µM"}, {"measurement": "CC50", "setting": "[19]; read-out: LC50", "value": 6.73, "unit": "µM"}, {"measurement": "GI50", "setting": "[20]; U251, 48 h", "value": 1.6, "unit": "µM"}, {"measurement": "CC50", "setting": "[20]; read-out: LC50", "value": 5.65, "unit": "µM"}, {"measurement": "GI50", "setting": "[21]", "value": 1.65, "unit": "µM"}, {"measurement": "CC50", "setting": "[21]; read-out: LC50, LOX IMVI, 48 h", "value": 5.69, "unit": "µM"}, {"measurement": "GI50", "setting": "[22]", "value": 1.84, "unit": "µM"}, {"measurement": "CC50", "setting": "[22]; read-out: LC50", "value": 5.99, "unit": "µM"}, {"measurement": "GI50", "setting": "[23]", "value": 1.56, "unit": "µM"}, {"measurement": "CC50", "setting": "[23]; read-out: LC50", "value": 5.43, "unit": "µM"}, {"measurement": "GI50", "setting": "[24]", "value": 1.84, "unit": "µM"}, {"measurement": "CC50", "setting": "[24]; read-out: LC50", "value": 6.54, "unit": "µM"}, {"measurement": "GI50", "setting": "[25]", "value": 1.82, "unit": "µM"}, {"measurement": "CC50", "setting": "[25]; read-out: LC50", "value": 6.33, "unit": "µM"}, {"measurement": "GI50", "setting": "[26]", "value": 1.64, "unit": "µM"}, {"measurement": "CC50", "setting": "[26]; read-out: LC50", "value": 5.7, "unit": "µM"}, {"measurement": "GI50", "setting": "[27]", "value": 3.85, "unit": "µM"}, {"measurement": "CC50", "setting": "[27]; read-out: LC50", "value": 42, "unit": "µM"}, {"measurement": "GI50", "setting": "[28]", "value": 1.72, "unit": "µM"}, {"measurement": "CC50", "setting": "[28]; read-out: LC50", "value": 5.56, "unit": "µM"}, {"measurement": "GI50", "setting": "[29]", "value": 1.45, "unit": "µM"}, {"measurement": "GI50", "setting": "[30]", "value": 1.64, "unit": "µM"}, {"measurement": "CC50", "setting": "[30]; read-out: LC50", "value": 5.51, "unit": "µM"}, {"measurement": "GI50", "setting": "[31]", "value": 1.74, "unit": "µM"}, {"measurement": "CC50", "setting": "[31]; read-out: LC50", "value": 7.43, "unit": "µM"}, {"measurement": "GI50", "setting": "[32]", "value": 1.67, "unit": "µM"}, {"measurement": "CC50", "setting": "[32]; read-out: LC50", "value": 6.37, "unit": "µM"}, {"measurement": "GI50", "setting": "[33]", "value": 1.79, "unit": "µM"}, {"measurement": "CC50", "setting": "[33]; read-out: LC50", "value": "> 100", "unit": "µM"}, {"measurement": "GI50", "setting": "[34]", "value": 1.73, "unit": "µM"}, {"measurement": "CC50", "setting": "[34]; read-out: LC50", "value": 5.69, "unit": "µM"}, {"measurement": "GI50", "setting": "[35]", "value": 1.65, "unit": "µM"}, {"measurement": "CC50", "setting": "[35]; read-out: LC50", "value": 6.09, "unit": "µM"}]}
